The results in this text go back to paper PMC9786051, “Natural Product 2-Oxokolavenol Is a Novel FXR Agonist” (Molecules, 2022).

SMILES strings stand for the structures. pEC50: −log10 of the molar value.

Test [1] has as its target T1, Farnesoid X receptor (FXR) (Homo sapiens, UniProt Q96RI1).
T1 construct: gene NR1H4; 6His-FXR-LBD (residues 243-472aa)
T1 sequence (Q96RI1 257-486): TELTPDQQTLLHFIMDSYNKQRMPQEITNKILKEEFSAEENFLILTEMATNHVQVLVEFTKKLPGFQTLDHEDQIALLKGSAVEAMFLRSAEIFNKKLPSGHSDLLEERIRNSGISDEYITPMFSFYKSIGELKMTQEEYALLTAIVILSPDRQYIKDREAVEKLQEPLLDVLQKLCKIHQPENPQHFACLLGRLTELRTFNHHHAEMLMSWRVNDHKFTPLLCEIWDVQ
Nature of the test: AlphaScreen coactivator recruitment with purified FXR-LBD; luciferase reporter. It is filed as biochemical. (In general: Bead proximity is the source of the signal in Alpha formats.)

The target in test [2] is T1, Farnesoid X receptor (FXR). Description: AlphaScreen coactivator recruitment with purified FXR-LBD; also luciferase reporter (EC50 […]) and M265I/Y369F mutagenesis. The format is binding.

As for `CC1=CCC[C@@H]2[C@@](C)(CC/C(C)=C/CO)[C@H](C)CC[C@@]12C` [kolavenol], in test [1], the “AlphaScreen coactivator recruitment with purified FXR-LBD; luciferase reporter” value is reported as “motifs bound to FXR-LBD in response to 2-oxokolavenol, 2-oxokolavelool, kolavenol, or OCA in the AlphaScreen assay”.
Broadly, the pEC50 is the negative decadic logarithm of the EC50, by convention in mol/L. For `CC1=CC(=O)C[C@@H]2[C@@](C)(CC/C(C)=C/CO)[C@H](C)CC[C@@]12C` [2-oxokolavenol], the pEC50 in test [2] was about 5.43.
